Reference: the Deep4Chem optical property database

Test: solvent given as SMILES
[1] = in O=P(c1ccccc1)(c1ccccc1)c1ccccc1Oc1ccccc1P(=O)(c1ccccc1)c1ccccc1

COc1ccc(C2=[N+]3C(=Nc4c(-c5cc(OC)c(OC)c(OC)c5Br)c(-c5ccc(C(C)(C)C)cc5)c(-c5ccc(OC)cc5)n4[B-]3(F)F)C(c3cc(OC)c(OC)c(OC)c3Br)=C2c2ccc(C(C)(C)C)cc2)cc1
emission maximum (in Cc1ccccc1): 740 nm

CC(C)c1cccc(C(C)C)c1N1C(=O)c2ccc3cc4c(cc5ccc6c7c(ccc4c57)C(=O)N(c4c(C(C)C)cccc4C(C)C)C6=O)c4ccc(c2c34)C1=O
emission maximum (in ClCCl): 668 nm

COc1ccc(C2=C(C)C3=C(c4c(-c5ccccn5)nc5ccccn45)c4c(C)c(-c5ccc(OC)cc5)c(C)n4[B-](F)(F)[N+]3=C2C)cc1
emission maximum (in ClCCl): 608 nm

C[Si]1(C)O[Si](C)(C)c2cc3c(-c4ccccc4)c4cc([N+](=O)[O-])ccc4nc3cc21
emission maximum (in ClCCl): 521 nm

C(=N\c1ccc(-c2cn3nc(-c4cccs4)sc3n2)cc1)/c1ccc(N(c2ccccc2)c2ccccc2)cc1
emission maximum (in ClC(Cl)Cl): 552 nm

O=S1(=O)c2ccccc2Oc2cc(N3c4ccccc4C4(c5ccccc53)c3ccccc3N(c3ccc5c(c3)Oc3ccccc3S5(=O)=O)c3ccccc34)ccc21
emission maximum (in Cc1ccccc1): 439.83 nm | emission maximum [1]: 464.9 nm

COc1ccccc1C1=[N+]2C(=Cc3c4c(c(-c5ccccc5OC)n3[B-]2(F)F)C2CCC4CC2)C2=C1C1CCC2CC1
emission maximum (in ClCCl): 583 nm

O=c1oc2ccccc2cc1/C=C/c1ccc([N+](=O)[O-])cc1
emission maximum (in CC#N): 539 nm

CC1(C)c2ccccc2N(c2ccc(-c3nnc(-c4ccc(-n5c6ccccc6c6ccccc65)cc4)o3)cc2)c2ccccc21
emission maximum (in Cc1ccccc1): 460 nm | emission maximum [1]: 479 nm

C[Si](C)(C)c1sc([Si](C)(C)C)c2c1sc1c2sc2sc3sc4c(sc5c([Si](C)(C)C)sc([Si](C)(C)C)c54)c3c21
emission maximum (in ClC(Cl)Cl): 360 nm

COc1ccc(C2=C3C=CC(=[N+](C)C)C=C3[Si](C)(C)c3cc(N(C)C)ccc32)c(OC)c1
emission maximum (in O): 663 nm

CC1(C)c2ccccc2N(c2ccc3c(c2)c(=O)c2cccc4c(=O)c5cc(N6c7ccccc7C(C)(C)c7ccccc76)ccc5n3c24)c2ccccc21
emission maximum (in Cc1ccccc1): 549.35 nm

Clc1cccc(-c2nc3sc4ccccc4c3s2)c1
emission maximum (in CS(C)=O): 420 nm

CCN1c2ccc(-c3cc(C(F)(F)F)[nH]n3)cc2Sc2cc(-c3cc(C(F)(F)F)[nH]n3)ccc21
emission maximum (in C1CCOC1): 469 nm | emission maximum (in CC#N): 469 nm | emission maximum (in CN(C)C=O): 464 nm | emission maximum (in ClCCl): 467 nm | emission maximum (in c1ccccc1): 463 nm

Nc1ccc2c(c1)C(=O)NC2=O
emission maximum (in C1CCOC1): 445 nm | emission maximum (in C1COCCO1): 435 nm | emission maximum (in CC#N): 458 nm | emission maximum (in CC(C)(C)O): 501 nm | emission maximum (in CC(C)=O): 457 nm | emission maximum (in CC(C)O): 505 nm | emission maximum (in CCO): 520 nm | emission maximum (in CCOCC): 425 nm | emission maximum (in CN(C)C=O): 470 nm | emission maximum (in CO): 518 nm | emission maximum (in O): 540 nm

CCOC(=O)c1c2c3c(ccc([N+](=O)[O-])c3c3cc4c(cc13)[Si](C)(C)O[Si]4(C)C)N(C)C2=O
emission maximum (in CC#N): 413 nm

c1ccc(N2c3ccccc3Sc3cc(-c4cccc5nc6ccccc6cc45)ccc32)cc1
emission maximum (in C1CCOC1): 476 nm | emission maximum (in CC#N): 504 nm | emission maximum (in CC(C)=O): 495 nm | emission maximum (in CC(C)OC(C)C): 546 nm | emission maximum (in CCCCCC): 487 nm | emission maximum (in CCCCOCCCC): 533 nm | emission maximum (in CCN(CC)CC): 525 nm | emission maximum (in CCOC(C)=O): 474 nm | emission maximum (in CCOCC): 549 nm | emission maximum (in CN(C)C=O): 495 nm | emission maximum (in ClCCl): 483 nm

Cc1nc(-c2cc(C(F)(F)F)ccc2O)n2c1CCCC2
emission maximum (in ClCCl): 432 nm

CC1(C)CC(=O)C2=C(C1)Oc1ccc3cc(O)ccc3c1C2c1ccccn1 (configuration not stated)
emission maximum (in C1CCOC1): 374 nm | emission maximum (in C1COCCO1): 377 nm | emission maximum (in CC#N): 378 nm | emission maximum (in CCCCCCC): 359 nm | emission maximum (in CCO): 377 nm | emission maximum (in CO): 377 nm | emission maximum (in O): 378 nm

c1cc2ccc3ccc4cc3c2cc1c1ccc2ccc3ccc(cc3c2c1)c1ccc2c(c1)c1cc4ccc1[C@]13OCCO[C@]21OCCO3
emission maximum (in Cc1ccccc1): 421 nm
